“And” between values parts separate entries of the source, which are not always exact repeats. Identical values can stand only once.
Columns and labels:
NF-κB = experiment: TNF-α-induced NF-κB reporter assay in LS174T PXR-KO cells; conditions: for NFkB NanoLuc luminescence, aver / NFkB %max: LS174T PXR-KO, EXP3; for NFkB %max: TNFa 5 ng/ml = 100
Text: In early passage PXR‐KO cells, we used PXR and NF‐κB reporter‐co‐transfected and NF‐κB reporter‐transfected PXR‐KO cell line.
CRISPR/Cas9‐mediated knockout cells were generated by Synthego Corporation (Redwood City, CA, USA). Briefly, cells were first tested negative for mycoplasma. Guide RNA was selected for high activity, specificity, and activity to create premature stop codons through frameshift mutations in the coding region via insertions and/or deletions (Indels) within exon 2 of the gene encoding human PXR (NR1I2 transcript ID ENST00000337940). […] To generate these cells, ribonucleoproteins (RNPs) containing the Cas9 protein and synthetic chemically modified sgRNA (Synthego) were electroporated into the cells using Synthego's optimized protocol. Editing efficiency is assessed upon recovery, 48 h post‐electroporation. Genomic DNA is extracted from a portion of the cells, PCR‐amplified, and sequenced using Sanger sequencing. The resulting chromatograms are processed using Synthego Inference of CRISPR Edits software (ice.synthego.com).

pxr -/- mice = experiment: DSS-induced acute colitis in pxr -/- mice; format: in vivo, mouse
Description: For these studies, 7‐ to 8‐week‐old female (DeVoss & Diehl, 2014) hPXR (mice expressing the human PXR gene) and pxr ^−/− mice (C57BL/6 background) were bred and each genotype was separated into two treatment groups using a random allocation method via coin toss—(i) n = 3 control (0.8% DMSO in 100 μl drinking water) and (ii) n = 3 FKK6 (200 μM (0.4 mg/kg/day) in 0.8% DMSO in 100 μl drinking water) administered once per day via oral gavage, and via intrarectal gavage for a total of 10 consecutive days The dose was chosen based on the extrapolation of the total dose delivered over 10 days to mice (~ 4 mg/kg), which is equivalent to that delivered to mice for determining target gene expression over 3–5 doses (3–5 mg/kg). […] Fecal pellets were collected prior to the initiation of the treatment protocol. All mice were starved overnight (12 h) to allow for smooth intrarectal delivery; however, the mice were allowed to feed ad libitum during the day. After 10 days, the mice were sacrificed and organs/tissues/feces harvested for further study. Prior to necropsy, mice were administered FITC‐dextran, and mouse serum was collected for the FITC‐dextran assay as previously described (Vetizou et al, 2015). The experimenter was not blinded to treatment allocation; however, the pathologist (KS) evaluating histologic scores was blinded to treatment allocation. […]

PRMT1 = biological target: T1, PRMT1 (Homo sapiens, UniProt Q99873); experiment: Histone methyltransferase assay (Reaction Biology); format: biochemical; conditions: substrate Histone H4, replicates
T1 construct: purchased Reaction Biology Corp
Description: Software Tool and reprinted with permission from KINOME scan®, a division of DiscoveRx […]
The following […] assays (HDAC, SIRT1, PRMT1, PARP1, p300, pCAF) were performed by Reaction Biology Corp. FKK6 was screened at a single concentration of 10 μM in duplicate in two separate experiments. The appropriate controls for the individual assays are published. The overall […]
enzyme activity in the assay is reported as a % activity in DMSO control wells. Control IC50 […]
Briefly, for the Sirtuin (SIRT1) assay, human SIRT1 (GenBank
Accession No. NM012238) full -length N-terminal His-tag protein (MW 83.2 kDa) was purified after expression in E. coli. The reaction buffer was freshly prepared and constituted 50 mM Tris-HC l ( p H 8), 137 mM NaCl, 2.7 mM KCl, 1 mM MgCl2, and just before use, 1 mg/mL BSA and 1% DMSO was added. The substrate was a fluorogenic acetylated peptide of p53 residues 379-382 (RHKK (Ac)- AM C) . In th e multi-well format, the 2X enzyme was mixed with the reaction buffer followed by compound (in 100% DMSO) titration via Acoustic technology (Echo550; LabCyte Inc, Sunnyvale, CA) in the nanoliter range. The mixture was spun down and 2X substrate (including NAD+) was added to initiate the reaction at 30° C at 2h under seal. […]

T1 sequence (Q99873 whole entry, species assumed): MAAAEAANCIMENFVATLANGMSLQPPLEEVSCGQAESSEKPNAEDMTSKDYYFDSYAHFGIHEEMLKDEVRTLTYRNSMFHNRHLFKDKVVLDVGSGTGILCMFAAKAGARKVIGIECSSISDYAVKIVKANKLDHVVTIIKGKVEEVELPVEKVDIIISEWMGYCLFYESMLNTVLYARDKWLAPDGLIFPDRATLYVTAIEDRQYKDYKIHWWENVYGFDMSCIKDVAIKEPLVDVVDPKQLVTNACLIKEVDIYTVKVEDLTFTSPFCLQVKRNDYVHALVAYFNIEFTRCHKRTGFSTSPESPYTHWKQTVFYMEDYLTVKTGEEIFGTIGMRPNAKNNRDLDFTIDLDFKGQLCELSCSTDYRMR

With `C#CCC(O)(c1ccncc1)c1cc2ccccc2n1S(=O)(=O)c1ccccc1` (centres unmarked) [FKK6] the “NFkB NanoLuc luminescence, aver” value (NF-κB; 1 μM + TNFα 5 ng/ml) was 70912.7, the NFkB %max (NF-κB; 1 μM + TNFα 5 ng/ml) was 128.7% and 128.74% and the “NFkB NanoLuc luminescence, aver” value (NF-κB; 10 μM + TNFα 5 ng/ml) was 56963.0. The NFkB %max (NF-κB; 10 μM + TNFα 5 ng/ml) was 103.4% and 103.41%, the “NFkB NanoLuc luminescence, aver” value (NF-κB; 25 μM + TNFα 5 ng/ml) was 50715.5 and the NFkB %max (NF-κB; 25 μM + TNFα 5 ng/ml) was 92.1% and 92.07%. For the same compound, the NF-κB reporter activity (NF-κB; TNF-exposed PXR-KO cells) was “neither rifampicin nor FKK6 repressed”, the “weight loss, colon length, inflammation score, lipocalin 2, FITC-dextran levels” value (pxr -/- mice; FKK6 200 μM, 10 days) was “did not alter” and the “% weight loss from baseline (day 10)” value (pxr -/- mice; pxr -/- mice, DSS colitis, Fig 6a, individual values) was 24% and 25% and 22%. The “% Enzyme Activity to DMSO controls” value (PRMT1; 10 μM) was 88.77% and 78.47% and 81.3% and the remaining activity at 10 µM (PRMT1; read-out: % Enzyme Activity to DMSO controls) was 86.4%.
